Reference: patent US20070021509A1, “Phosphate transport inhibitors” (priority 2001, published 2007)
Read-outs that look alike come from different tables or passages of the source. Each block holds one molecule with its values, some of them ahead of it.

Test system: phosphate uptake by rabbit intestinal Brush Border Membrane Vesicles (BBMV)
Test: 33PO4 uptake in rabbit intestinal BBMV (HTS), phosphate transporter inhibition in vitro
Type: biochemical
Conditions: for IC50: read-out: IC50; for % Inhib. At 100 μM: Table 3, 100 μM compound
Experimental: The following example outlines the procedures required for in vitro measurement of the inhibition of phosphate uptake by rabbit intestinal Brush Border Membrane Vesicles (BBMV).
Rabbit Intestinal Brush Border Membrane Vesicles (BBMV) were isolated from mucosal scrapings of the upper small intestine (duodenum) of male New Zealand White rabbits. The scrapings were divided into 2 g aliquots in cryopreservation vials, frozen in liquid nitrogen, and stored at −80° C.
The following procedure was performed for each 2 g sample of BBMV mucosal scraping. Buffer volumes and container sizes were adjusted appropriately for the number of 2 g samples used. The entire preparation was performed on ice, unless otherwise stated.
Mucosal scrapings (2 g per tube) were thawed in a 37° C. water bath for 3 minutes and then placed on ice. The scrapings were suspended with a total of 7.5 ml of 300 MET, and transferred to a 250 mL Corning tube on ice. To the suspension was added 30 mL cold (4° C.) deionized water (dH20). The suspension was homogenized with a tissue homogenizer (Polytron) on high speed for 2 minutes. A stir bar and MgCl2 (81.3 mg) was added. The suspension was mixed well by inverting the closed tube. The suspension was stirred on ice, ensuring that a good vortex is achieved with the stir bar, for 40 minutes. The suspension was transferred to a chilled centrifuge tube and spun at 4000×g for 15 minutes. The supernatant was transferred to a new chilled centrifuge tube and spun at 32000×g for 30 minutes. The supernatant was discarded and the pellet was re-suspended with 34 mL cold 60 MET. The suspension was homogenized with a Dounce homogenizer with 8 strokes. The suspension was transferred to a fresh 250 mL Corning tube. A stir bar and 69.1 mg MgCl2 were added. The suspension was stirred well on ice for 10 minutes. The suspension was transferred to a chilled centrifuge tube and spun at 4000×g for 15 minutes. The supernatant was transferred to a new chilled centrifuge tube and spun at 32000×g for 30 minutes. The supernatant was discarded. At this stage, the preparation could be continued or this pellet (P4) could be frozen in liquid nitrogen and stored at −80° C. When needed, this pellet could be allowed to thaw at room temperature for 5 minutes. Continuing the preparation, the pellet was re-suspended with 34 mL cold 280 MH. The suspension was homogenized in a Dounce homogenize with 8 strokes. The suspension was transferred to a new chilled centrifuge tube and spun at 32000×g for 30 minutes. The supernatant was discarded. To the pellet was added 500 μL 280 MH and the pellet was re-suspended very carefully with a 1 mL tuberculin syringe with a 25-gauge needle with care not to create bubbles. Once the entire pellet was suspended, the suspension was transferred to a chilled 1.5 mL microfuge tube. The suspension was evenly dispersed by bringing the suspension up into the syringe through the 25-gauge needle, and back out again 8 times with care not to create bubbles. The total protein concentration was determined by performing a Bradford Protein Assay. Using that value, the BBMV were diluted with 280 MH to reach approximately 0.5-2.0 mg/mL. The solution was used as soon as possible for uptake studies.
The following experiment was performed using a Beckman Multimek 96-tip robotic pipettor. The following outlines the preparation required to screen one 96-well plate of compounds. However, multiple plates could be screened in one experiment.
To the “Uptake Buffers” was added ^33PO4 to reach 200,000 CPM/19 μL. The buffer solutions were stored at room temperature. The following control solutions were prepared and placed into appropriate wells of a polypropylene, 96-well V-bottom plate (“Hot Stock Plate”):
a. Maximum activity (MAX)−Na Uptake buffer+^33PO4 at 200,000 CPM/19 μL
b. Midline activity (MID)−MAX+100 μM KH2PO4, pH 7.4
c. Minimum activity (MIN)− K Uptake buffer+^33PO4 at 200,000 CPM/19 μL

Structure (SMILES): Cn1nc(-c2ccc(O)cc2)cc1-c1cccc(F)c1 [Compound 241]
IC50 (Table 7, phosphate uptake): 101 to 500 µM

Structure (SMILES): O=S(=O)(O)c1cc(NS(=O)(=O)c2cccc3ccccc23)ccc1/C=C/c1ccc(NS(=O)(=O)c2cccc3ccccc23)cc1S(=O)(=O)O [Compound 299]
IC50 (Table 13, phosphate uptake): 501 to 1000 µM

Structure (SMILES): O=C(Nc1cc(F)cc(C(F)(F)F)c1)Nc1ccc(Br)cc1P(=O)(O)O [Compound 184]
IC50 (Table 4, phosphate uptake): 101 to 500 µM

Structure (SMILES): O=S(=O)(Nc1cc(Cl)c(Cl)cc1Cl)c1cc(C(F)(F)F)cc(C(F)(F)F)c1 [Compound 127]
% Inhib. At 100 μM: 101%

Structure (SMILES): O=S(=O)(Nc1ccccc1Br)c1ccc(OC(F)(F)F)cc1 [Compound 149]
% Inhib. At 100 μM: 57%

Structure (SMILES): Fc1ccc(C2CC(c3ccc(Oc4ccccc4)cc3)=NO2)cc1 (centres unmarked) [Compound 235]
% Inhib. at 100 μM (Table 6, 100 μM compound): 54%

Structure (SMILES): O=C(Nc1ccccc1Cl)c1cc(Br)ccc1NS(=O)(=O)c1ccc(Cl)c([N+](=O)[O-])c1 [Compound 118]
IC50 (Table 2, phosphate uptake): 101 to 500 µM

Structure (SMILES): CSc1ccc(NC(=O)c2cc(Br)ccc2NS(=O)(=O)c2ccc(OC(F)(F)F)cc2)cc1 [Compound 65]
IC50 (Table 2, phosphate uptake): 51 to 100 µM

Structure (SMILES): Cc1ccc2c(c1)CCCN2S(=O)(=O)c1ccc(C(C)(C)C)cc1 [Compound 141]
% Inhib. At 100 μM: 68%

Structure (SMILES): O=[N+]([O-])c1ccc(CS(=O)(=O)c2ccc(F)cc2F)c(Cl)c1 [Compound 285]
% Inhib. at 100 μM (Table 12, 100 μM compound): 44%

Structure (SMILES): O=C(O)c1cc(Br)ccc1NS(=O)(=O)c1ccc(Cl)cc1 [Compound 29]
IC50 (Table 1, phosphate uptake): 101 to 500 µM

Structure (SMILES): Cc1ccc(S(=O)(=O)N2CCC(=O)c3ccc(Cl)cc32)cc1 [Compound 152]
% Inhib. At 100 μM: 54%

Structure (SMILES): O=C(Nc1cccc(C(F)(F)F)c1)Nc1ccc(Br)cc1P(=O)(O)O [Compound 230]
% Inhib. at 100 μM (Table 5, 100 μM compound): 49%

Structure (SMILES): O=C(Nc1ccc(Cl)c(Cl)c1)Nc1ccc(Br)cc1P(=O)(O)O [Compound 179]
IC50 (Table 4, phosphate uptake): < 50 µM

Structure (SMILES): COc1ccc(S(=O)(=O)Nc2ccc(Br)cc2C(=O)Nc2cccc(Cl)c2C)cc1[N+](=O)[O-] [Compound 100]
IC50 (Table 2, phosphate uptake): 51 to 100 µM

Structure (SMILES): O=S(=O)(Nc1cccc(Cl)c1)c1ccc(OC(F)(F)F)cc1 [Compound 132]
% Inhib. At 100 μM: 79%

Structure (SMILES): COc1ccc(S(=O)(=O)Nc2ccc(Br)cc2C(=O)Nc2ccccc2F)cc1[N+](=O)[O-] [Compound 102]
IC50 (Table 2, phosphate uptake): 51 to 100 µM

Structure (SMILES): O=[N+]([O-])c1ccc(S(=O)(=O)Nc2ccc(/C=C/c3ccc(NS(=O)(=O)c4ccc([N+](=O)[O-])cc4)cc3S(=O)(=O)O)c(S(=O)(=O)O)c2)cc1 [Compound 303]
IC50 (Table 13, phosphate uptake): 501 to 1000 µM

Structure (SMILES): COc1ccc(-c2cc(-c3ccco3)n(C)n2)cc1 [Compound 240]
IC50 (Table 7, phosphate uptake): 101 to 500 µM

Results, then the molecule that gave them:

IC50 (Table 4, phosphate uptake): 1000 to 1500 µM
Structure (SMILES): O=C(Nc1ccccc1)Nc1ccc(Br)cc1P(=O)(O)O [Compound 205]

IC50 (Table 2, phosphate uptake): 501 to 1000 µM
Structure (SMILES): O=C(Nc1cc(Cl)ccc1Cl)c1cc(Br)ccc1NS(=O)(=O)c1ccc(OC(F)(F)F)cc1 [Compound 80]

IC50 (Table 2, phosphate uptake): < 50 µM
Structure (SMILES): O=C(Nc1ccc(Br)cc1)c1cc(Br)ccc1NS(=O)(=O)c1ccc(OC(F)(F)F)cc1 [Compound 51]

IC50 (Table 1, phosphate uptake): > 1500 µM
Structure (SMILES): COc1ccc(S(=O)(=O)Nc2ccc(Br)cc2C(=O)O)cc1[N+](=O)[O-] [Compound 42]

IC50 (Table 4, phosphate uptake): 101 to 500 µM
Structure (SMILES): Cc1ccc(NC(=O)Nc2ccc(Br)cc2P(=O)(O)O)cc1[N+](=O)[O-] [Compound 190]

IC50 (Table 2, phosphate uptake): 51 to 100 µM
Structure (SMILES): COc1ccc(NC(=O)c2cc(Br)ccc2NS(=O)(=O)c2ccc(OC(F)(F)F)cc2)cc1 [Compound 56]

IC50 (Table 4, phosphate uptake): 501 to 1000 µM
Structure (SMILES): O=C(Nc1ccc(Br)cc1P(=O)(O)O)Nc1cccc(C(F)(F)F)c1Cl [Compound 198]

IC50 (Table 4, phosphate uptake): 501 to 1000 µM
Structure (SMILES): O=C(NCc1ccccc1)Nc1ccc(Br)cc1P(=O)(O)O [Compound 201]

IC50 (Table 4, phosphate uptake): 501 to 1000 µM
Structure (SMILES): N#Cc1cccc(NC(=O)Nc2ccc(Br)cc2P(=O)(O)O)c1 [Compound 197]

IC50 (Table 4, phosphate uptake): 101 to 500 µM
Structure (SMILES): CC(C)c1cccc(C(C)C)c1NC(=O)Nc1ccc(Br)cc1P(=O)(O)O [Compound 191]
